Experimental data: paper PMC6155426, “Metabolite Profiling of Eastern Teaberry (Gaultheria procumbens L.) Lipophilic Leaf Extracts with Hyaluronidase and Lipoxygenase Inhibitory Activity” (Molecules : A Journal of Synthetic Chemistry and Natural …, 2017)
Read-outs that look alike come from different tables or passages of the source.

Legend:
[1] = target: T1, lipoxygenase from soybean (Glycine max, UniProt P08170); assay: Lipoxygenase inhibition test (spectrophotometric, 96-well); assay type: biochemical
T1 construct: purchased Sigma-Aldrich; host or cells: soybean (plant-derived preparation)
T1 sequence (P08170 1-839): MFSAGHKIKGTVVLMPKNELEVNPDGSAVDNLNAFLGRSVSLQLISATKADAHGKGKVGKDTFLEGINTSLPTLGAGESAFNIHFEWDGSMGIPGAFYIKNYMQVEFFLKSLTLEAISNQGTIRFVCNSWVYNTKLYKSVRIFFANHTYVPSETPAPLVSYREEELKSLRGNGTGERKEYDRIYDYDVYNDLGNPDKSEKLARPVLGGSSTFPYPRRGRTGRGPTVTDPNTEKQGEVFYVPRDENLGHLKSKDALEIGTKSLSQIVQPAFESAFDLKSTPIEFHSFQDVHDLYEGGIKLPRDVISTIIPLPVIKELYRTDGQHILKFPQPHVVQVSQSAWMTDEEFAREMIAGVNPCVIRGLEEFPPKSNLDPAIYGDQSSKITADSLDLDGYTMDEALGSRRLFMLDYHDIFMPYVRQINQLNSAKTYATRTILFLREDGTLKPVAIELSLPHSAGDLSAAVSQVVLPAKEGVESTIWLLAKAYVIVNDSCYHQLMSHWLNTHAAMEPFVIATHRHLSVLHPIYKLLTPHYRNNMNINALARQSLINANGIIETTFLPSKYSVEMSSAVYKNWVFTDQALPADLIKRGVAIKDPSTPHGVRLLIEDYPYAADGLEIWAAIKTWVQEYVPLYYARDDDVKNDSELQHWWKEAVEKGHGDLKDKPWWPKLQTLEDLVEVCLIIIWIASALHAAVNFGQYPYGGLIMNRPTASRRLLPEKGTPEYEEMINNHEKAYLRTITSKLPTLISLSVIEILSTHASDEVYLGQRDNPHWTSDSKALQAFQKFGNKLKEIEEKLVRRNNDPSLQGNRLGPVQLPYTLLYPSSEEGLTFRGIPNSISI
Protocol: (§1) Heparin sodium salt was purchased from WZF Polfa (Warsaw, Poland). HPLC grade solvents (methanol and orthophosphoric acid) were from Avantor Performance Materials (Avantor PM, Gliwice, Poland). All other chemicals and solvents were of analytical grade and supplied by Avantor PM. In all analyses redistilled water was used. Enzymatic tests were done using 96-well plates and monitored using a Synergy 4 microplate reader (BioTek, Winooski, VT, USA). Column chromatography (CC) was performed on silica gel 60 G (0.2–0.5 mm, Macherey-Nagel, Düren, Germany). Analytical TLC was carried out on silica gel 60 G precoated plates (Merck, Warsaw, Poland) using horizontal DC chambers (Chromdes, Lublin, Poland). Flash chromatography was carried out on an Interchim puriFlash^TM 430evo chromatograph (Interchim Inc., San Pedro, CA, USA) equipped with a UV-Vis detector scanning in the wavelength range of 200–600 nm, a fraction collector, and Interchim puriFlash Silica HC (50 µm, 72 mm × 15 mm, 4 g) preparative columns. The flow rate was 7 mL/min. The mobile phase consisted of petroleum ether (A), chloroform (B), and methanol (C). A linear gradient system was used for elution (A:B:C): 0–9 min, 75:25:0 (v/v/v); 9–10 min, 49:49:2; 10–15 min, 45:45:10. Before injection, samples were dissolved in chloroform. Melting points (uncorrected) were determined on a Boetius apparatus (Carl Zeiss, Jena, Germany). UV-Vis spectra, before and after adding ionization and complexation reagents, were recorded at 25 °C on a UV-1601 Spectrophotometer (Rayleigh, Beijing, China) in methanol, according to Mabry et al.. ESI-MS spectra were measured on a UHPLC-3000 RS chromatograph (Dionex, Dreieich, Germany) equipped with a dual low-pressure gradient pump, an autosampler, a diode array detector, and an AmaZon SL ion trap mass spectrometer with an ESI interface (Bruker Daltonik, Bremen, Germany). IR spectra were recorded in KBr on a Bruker Alpha FT-IR spectrometer (Bruker Daltonik). Optical rotation ( [α]D20 ) was measured in chloroform on a PolAAr 3001 polarimeter (Optical Activity, Ramsey, UK). ^1H-NMR, ^13C-NMR, ^1H-^1H COSY, HMQC, and HMBC spectra were recorded at 25 °C on a Bruker Daltonik III 600 MHz spectrometer in CDCl3 and with TMS as the internal standard.
Inhibitory activity of the tested analytes (extracts and individual compounds) was determined by a spectrophotometric method adjusted to a 96-well microtiter plates according to Granica et al.. The protocol was started by adding 50 μL of the tested analyte solution in sodium borate buffer (pH = 9.0), then 50 μL of linoleic acid solution (134 μM) was added, followed by 50 μL of lipoxygenase solution (167 U/mL) in sodium borate buffer (pH = 9.0). The reaction mixture was vigorously shaken and changes in absorbance were measured at 234 nm over a period of 15 min with 1 min intervals. […] At each level three independent experiments were carried out in duplicate. Indomethacin was used as a positive control. Activity of the tested analytes was calculated as inhibition percentage (% Inhibition) of lipoxygenase according to Equation (2): (2) % Inhibition=100×(1−(AAN−ALA/ALOX)), where AAN—absorbance of solution with the tested analyte, ALA—absorbance of solution without the enzyme, ALOX—absorbance of solution without the tested analyte (negative control). The absorbance value in the 10th minute of the reaction were used for the calculation.

[2] = target: T2, bovine testis hyaluronidase (Bos taurus, UniProt Q2YDK3); assay: Hyaluronidase inhibition test (turbidimetric, 96-well); assay type: biochemical; details: for IC50: read-out: HYAL inhibitory activity (IC50) (converted)
T2 construct: purchased Sigma-Aldrich; host or cells: bovine testis (tissue-derived preparation)
T2 sequence (Q2YDK3 36-553): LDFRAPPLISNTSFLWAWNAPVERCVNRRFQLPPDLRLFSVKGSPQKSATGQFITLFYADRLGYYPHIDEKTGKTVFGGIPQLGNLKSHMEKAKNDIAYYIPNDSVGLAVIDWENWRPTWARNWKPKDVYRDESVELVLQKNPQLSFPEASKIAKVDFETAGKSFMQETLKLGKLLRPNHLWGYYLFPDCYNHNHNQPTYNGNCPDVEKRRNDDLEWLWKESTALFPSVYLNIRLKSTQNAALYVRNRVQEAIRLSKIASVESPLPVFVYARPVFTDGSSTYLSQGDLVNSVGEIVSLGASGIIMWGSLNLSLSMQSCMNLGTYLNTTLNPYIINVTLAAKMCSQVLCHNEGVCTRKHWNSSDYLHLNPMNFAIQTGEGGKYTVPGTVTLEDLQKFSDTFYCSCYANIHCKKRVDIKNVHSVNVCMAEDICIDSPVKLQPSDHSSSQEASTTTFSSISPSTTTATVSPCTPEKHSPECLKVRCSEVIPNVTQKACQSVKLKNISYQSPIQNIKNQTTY
Protocol: as §1
Inhibitory activity of the tested analytes (extracts and individual compounds) was determined by turbidimetric method adapted for 96-well microtiter plates as described previously. The protocol was started by adding 20 μL of the tested analyte solution in monosodium phosphate buffer (pH = 7.0) to 40 μL of hyaluronidase solution (22.55 U/mL) in monosodium phosphate buffer (pH = 7.0) and the mixture was incubated at 37.0 ± 0.1 °C in the dark for 10 min. After this time 40 μL of hyaluronic acid solution (0.03%, w/v) in monosodium phosphate buffer (pH = 5.35) was added and the mixture was further incubated at 37.0 ± 0.1 °C in the dark for 45 min. Finally 300 μL of bovine serum albumin solution (0.1%, w/v) in sodium acetate buffer (pH = 3.75) was added to the mixture and incubated in room temperature for 10 min. Changes in turbidity were measured at 600 nm. […] At each level three independent experiments were carried out in duplicate. Heparin was used as a positive control. Activity of the tested analytes was calculated as inhibition percentage (% Inhibition) of hyaluronidase according to the Equation (1): (1) % Inhibition=100×(1−(AHA−AAN/AHA−AHYAL)), where AHA—absorbance of solution without the enzyme, AHYAL—absorbance of solution without the tested analyte (negative control), AAN—absorbance of solution with the tested analyte.

[3] = tested 50−1000 μg/mL, linoleic acid substrate, pH 9.0, mean ± SD (n = 3 × 2), read-out: LOX inhibitory activity (IC50) (converted)
[4] = tested 100−1000 μg/mL, hyaluronic acid substrate, 37 °C, mean ± SD (n = 3 × 2)

`COc1ccc2c(c1)c(CC(=O)O)c(C)n2C(=O)c1ccc(Cl)cc1` [IND, indomethacin, reference compound] was tested, and the IC50 [1, 3] was 259 µM.
Compound `COc1cc2oc(-c3ccc(O)cc3)c(OC)c(=O)c2c(O)c1C` [DL, 4′,5-dihydroxy-3,7-dimethoxy-6-methylflavone] has an IC50 [2, 4] of 1320 µM and an IC50 [1, 3] of 920 µM.
In the case of `C[C@H]1[C@H](C)CC[C@]2(C(=O)O)CC[C@]3(C)C(=CC[C@@H]4[C@@]5(C)CC[C@H](O)C(C)(C)[C@@H]5CC[C@]43C)[C@H]12` [UA, ursolic acid], the IC50 [2, 4] is reported as 832 µM and the IC50 [1] is reported as 1610 µM.
`CC1(C)CC[C@]2(C(=O)O)CC[C@]3(C)C(=CC[C@@H]4[C@@]5(C)CC[C@H](O)C(C)(C)[C@@H]5CC[C@]43C)[C@@H]2C1` [OA, oleanolic acid] showed an IC50 [1] of 2020 µM.
Work on `CC1=CC(=O)CC(C)(C)C1(O)C=CC(C)O` [VO, (6S,9R)-6-hydroxy-3-oxo-α-ionol] yielded an IC50 [2, 4] of 1590 µM and an IC50 [1, 3] of 540 µM.
Work on `CC[C@H](CC[C@@H](C)[C@H]1CC[C@H]2[C@@H]3CC=C4C[C@@H](O)CC[C@]4(C)[C@H]3CC[C@]12C)C(C)C` [β-SIT, β-sitosterol] yielded an IC50 [2, 4] of 1650 µM and an IC50 [1, 3] of 1910 µM.
In the case of heparin [HP, reference compound], the “HYAL inhibitory activity (IC50)” value [2, 4] is reported as 366.24 ± 14.72 µg/mL.
With `COc1cc2oc(-c3ccc(O)cc3)cc(=O)c2c(O)c1C` [DS, 4′,5-dihydroxy-7-methoxy-6-methylflavone] the IC50 [2, 4] was 1570 µM and the IC50 [1, 3] was 1120 µM.
With `CCCCCCCCCCCCCCCCCCCCCC` [DOC, docosane] the IC50 [2, 4] was > 3220 µM, the “inhibitory activity towards hyaluronidase in the tested concentration range” value ([2]; tested concentration range 100−1000 μg/mL) was “no inhibitory activity” and the IC50 [1, 3] was 2640 µM.
`COC(=O)c1ccccc1O` [SM, methyl salicylate] gave an IC50 [2, 4] of 5220 µM and an IC50 [1, 3] of 2570 µM.
Compound `COC(=O)c1ccccc1` [BM, methyl benzoate] has an IC50 [2, 4] of 5700 µM and an IC50 [1] of 2750 µM.
